According to a melting point compilation (Tetko et al.; mined from patent text by program, amines drawn as free bases though some values may be those of a salt):

melting point [°C]	SMILES
170	CC(C)(C)c1cc(CCc2ccccc2NC(=O)NCc2ccco2)cc(C(C)(C)C)c1O
167	COc1ccc(C(=NOC(C)=O)c2ccc(Cl)cc2)c(O)c1
169 to 170	CCCOc1ccc(C2CCCN3CCS(=O)(=O)N=C23)cc1 (stereo not drawn)
124 to 125	Cc1oc(-c2ccccc2)nc1CCOc1ccc(CC(C(=O)O)c2ccccc2)cc1 (stereo not drawn)
101 to 103	C=CCOc1ccc(-c2c(OC(C)C)cccc2C(=O)O)c(OC)c1
142 to 144	O=C(O)[C@]12CCCC[C@H]1CCc1ccccc12 (relative stereo)
200 to 201	CC(C)(C)C(NC(=O)Cc1ccc2ccccc2c1)NC(=NC#N)Nc1cccc2ncccc12 (stereo not drawn)
157 to 159	Cc1c(N2CCc3c(-c4ccccc4)cccc32)nc2ccc(F)cc2c1C(=O)O
115 to 135	COc1cc(C(=O)NS(=O)(=O)c2ccccc2C)ccc1Cc1cn(C)c2ccc(CC3CCN(C)C3=O)cc12 (stereo not drawn)
121 to 123	Nc1cnc2ccsc2c1
131 to 132	COC(=O)c1cccc(C(NCC(=O)Nc2c(C(C)C)cccc2C(C)C)c2ccccc2)c1 (stereo not drawn)
136	COC(=O)c1ccc(C=CC(=O)N2CCc3c([nH]c4ccccc34)C2c2ccc3c(c2)OCCO3)cc1 (stereo not drawn)
260	CCCC1=C(C#N)C(c2ccccc2Cl)c2c(n[nH]c2C)N1 (stereo not drawn)
149	O=C(c1nnn(Cc2cc(C(F)(F)F)cc(C(F)(F)F)c2)c1-n1ccnc1)c1c(CO)noc1-c1ccccc1Cl
> 300	O=C(CCc1ccccc1)Oc1n[nH]c(=O)c2nc3cc(Cl)ccc3c(O)c12
119 to 121	CCOC(=O)c1c[nH]c(Cc2ccc(OC)cc2)n1
259 to 260	Cc1ccc(C(=O)C2=C(O)C(=O)N(c3ccc(C)nn3)C2c2ccc(OC3CCN(C)CC3)cc2)cc1 (stereo not drawn)

melting point [°C]	SMILES
166 to 167	Fc1cccc(NCc2nnc(-c3ccc4c(c3)CCO4)o2)c1
58 to 59	COC(=O)c1ccc(OCc2ccccc2)c(OC2CCCC2)c1
80.8 to 81.9	CCCCCCCCCCCCCCCCC(N)CO (stereo not drawn)
118 to 119	N#Cc1cc(-c2ccccn2)nn1-c1ccc(NC(=O)c2ccncc2F)cc1
160 to 162	CN(C)c1ccccc1CSC1=NC(=O)NC1(C)C
159 to 160	CCC(OCC1CC1)c1ccc(Cl)c2nc3n(c12)CCCN3c1ccc(Cl)cc1Cl (stereo not drawn)
128 to 129	CC(=O)NC1C(OCc2ccccc2)OC(COCc2ccccc2)C(OCc2ccccc2)C1OCC(=O)O (stereo not drawn)
125 to 130	COc1ccc(NC(=O)N(Cc2ccccc2)C2CCCCCC2)c(NC(=O)c2cc(C(C)(C)C)c(O)c(C(C)(C)C)c2)c1
> 200	CC(C)(C)OC(=O)N1CC(CCl)c2c1cc(N)c1ccccc21 (stereo not drawn)
131 to 132	N#Cc1c(Br)c(C(F)(F)F)n(CBr)c1-c1ccc(Cl)cc1
126	CC1c2ccccc2NC(=O)N1CCCl (stereo not drawn)
90 to 91	Cc1ccccc1Cn1c(=O)on(C(=O)N(c2ccc(Cl)cc2)C(C)C)c1=O
69	CC(C)n1nc(CS(C)=O)cc1O (stereo not drawn)
125 to 126	COc1ccccc1C(=O)c1cccnn1
123	CC(CO)N1c2ccccc2Sc2ccc(C#N)cc21 (racemic)
144 to 145	CC1CC(=O)c2cc([N+](=O)[O-])ccc2O1 (stereo not drawn)
92 to 93	CC1=C(O)C(=O)C(C)C1 (stereo not drawn)

SMILES	melting point [°C]
CC(=O)OC1CCC2CCC3C(CCC4(C)C(O)C(N5CCCCC5)CC34)C2(C)C1 (stereo not drawn)	162 to 166
Cc1cc(C(=O)N(C)C)ncc1C(c1c(F)ccc(F)c1F)S(=O)(=O)CCC(F)(F)F (stereo not drawn)	203 to 204
CCOP(=S)(OCC)Oc1c(C(=O)c2ccccc2Cl)c(C)nn1C	71 to 74
CN1C(=O)C(C)(C)N=C(c2ccccc2F)c2cc(N3C(=O)NC(C)(C)C3=O)ccc21	286 to 287
